Assay results taken from the kinase profiling compilation of Christmann-Franck et al. (2016).

How the values were obtained:
Details in all cases: compound 10.0 µM
ABL2 (human) = ABL2 (human) (UniProt P42684)
AKT3 (human) = AKT3 (human) (UniProt Q9Y243)
CAMK1 (human) = CAMK1 (human) (UniProt Q14012)
CAMK2G (human) = CAMK2G (human) (UniProt Q13555)
CDC42BPA (human) = CDC42BPA (human) (UniProt Q5VT25)
CDK6 CCND1 (human) = CDK6 CCND1 (human) (UniProt Q00534+P24385)
CDK6 CCND3 (human) = CDK6 CCND3 (human) (UniProt Q00534+P30281)
CDK9 CCNT1 (human) = CDK9 CCNT1 (human) (UniProt O60563+P50750)
DYRK1A (human) = DYRK1A (human) (UniProt Q13627)
DYRK4 (human) = DYRK4 (human) (UniProt Q9NR20)
EPHA8 (human) = EPHA8 (human) (UniProt P29322)
ERBB2 (human) = ERBB2 (human) (UniProt P04626)
FLT1 (human) = FLT1 (human) (UniProt P17948)
FLT4 (human) = FLT4 (human) (UniProt P35916)
FRK (human) = FRK (human) (UniProt P42685)
IGF1R (human) = IGF1R (human) (UniProt P08069)
LTK (human) = LTK (human) (UniProt P29376)
Sequence of LTK (human) (P29376 whole entry, looked up): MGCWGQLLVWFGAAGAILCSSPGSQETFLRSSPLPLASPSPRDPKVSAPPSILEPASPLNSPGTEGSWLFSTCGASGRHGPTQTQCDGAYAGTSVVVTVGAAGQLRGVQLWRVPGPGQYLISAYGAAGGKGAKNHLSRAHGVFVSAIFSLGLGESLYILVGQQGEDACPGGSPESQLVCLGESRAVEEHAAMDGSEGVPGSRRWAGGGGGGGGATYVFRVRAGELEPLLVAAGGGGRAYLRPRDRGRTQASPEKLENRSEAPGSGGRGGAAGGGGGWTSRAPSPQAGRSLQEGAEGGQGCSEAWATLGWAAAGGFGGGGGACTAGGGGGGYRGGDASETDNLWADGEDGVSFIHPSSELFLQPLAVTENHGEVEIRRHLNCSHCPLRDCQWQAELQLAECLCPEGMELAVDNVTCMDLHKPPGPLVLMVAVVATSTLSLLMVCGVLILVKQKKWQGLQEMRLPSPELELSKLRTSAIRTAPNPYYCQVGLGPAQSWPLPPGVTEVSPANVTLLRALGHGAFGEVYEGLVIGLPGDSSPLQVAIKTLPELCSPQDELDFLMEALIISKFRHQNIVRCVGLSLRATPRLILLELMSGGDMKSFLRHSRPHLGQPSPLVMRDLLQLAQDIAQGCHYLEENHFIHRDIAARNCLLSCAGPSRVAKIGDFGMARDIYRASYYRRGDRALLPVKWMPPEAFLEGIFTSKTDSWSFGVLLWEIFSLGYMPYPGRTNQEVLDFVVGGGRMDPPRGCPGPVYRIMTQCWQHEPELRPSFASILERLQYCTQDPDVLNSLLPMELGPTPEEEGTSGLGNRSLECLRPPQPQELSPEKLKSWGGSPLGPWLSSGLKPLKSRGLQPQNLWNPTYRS

MAP3K3 (human) = MAP3K3 (human) (UniProt Q99759)
Sequence of MAP3K3 (human) (Q99759 whole entry, looked up): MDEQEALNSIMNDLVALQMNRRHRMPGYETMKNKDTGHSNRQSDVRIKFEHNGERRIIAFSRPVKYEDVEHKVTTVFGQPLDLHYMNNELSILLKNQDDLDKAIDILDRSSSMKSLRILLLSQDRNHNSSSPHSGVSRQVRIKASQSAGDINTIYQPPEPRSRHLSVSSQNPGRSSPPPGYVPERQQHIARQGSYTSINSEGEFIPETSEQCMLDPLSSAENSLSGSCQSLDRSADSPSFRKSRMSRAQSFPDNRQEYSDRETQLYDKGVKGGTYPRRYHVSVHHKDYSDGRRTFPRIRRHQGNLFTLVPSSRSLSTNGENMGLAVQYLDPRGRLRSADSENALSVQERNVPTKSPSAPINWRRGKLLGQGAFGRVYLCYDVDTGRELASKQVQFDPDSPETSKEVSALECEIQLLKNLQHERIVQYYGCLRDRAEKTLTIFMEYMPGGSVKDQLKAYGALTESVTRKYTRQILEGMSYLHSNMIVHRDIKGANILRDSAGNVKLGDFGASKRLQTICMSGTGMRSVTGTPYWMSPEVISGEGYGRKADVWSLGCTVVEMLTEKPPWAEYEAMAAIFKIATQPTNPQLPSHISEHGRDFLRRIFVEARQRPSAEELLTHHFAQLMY

MARK3 (human) = MARK3 (human) (UniProt P27448)
Sequence of MARK3 (human) (P27448 whole entry, looked up): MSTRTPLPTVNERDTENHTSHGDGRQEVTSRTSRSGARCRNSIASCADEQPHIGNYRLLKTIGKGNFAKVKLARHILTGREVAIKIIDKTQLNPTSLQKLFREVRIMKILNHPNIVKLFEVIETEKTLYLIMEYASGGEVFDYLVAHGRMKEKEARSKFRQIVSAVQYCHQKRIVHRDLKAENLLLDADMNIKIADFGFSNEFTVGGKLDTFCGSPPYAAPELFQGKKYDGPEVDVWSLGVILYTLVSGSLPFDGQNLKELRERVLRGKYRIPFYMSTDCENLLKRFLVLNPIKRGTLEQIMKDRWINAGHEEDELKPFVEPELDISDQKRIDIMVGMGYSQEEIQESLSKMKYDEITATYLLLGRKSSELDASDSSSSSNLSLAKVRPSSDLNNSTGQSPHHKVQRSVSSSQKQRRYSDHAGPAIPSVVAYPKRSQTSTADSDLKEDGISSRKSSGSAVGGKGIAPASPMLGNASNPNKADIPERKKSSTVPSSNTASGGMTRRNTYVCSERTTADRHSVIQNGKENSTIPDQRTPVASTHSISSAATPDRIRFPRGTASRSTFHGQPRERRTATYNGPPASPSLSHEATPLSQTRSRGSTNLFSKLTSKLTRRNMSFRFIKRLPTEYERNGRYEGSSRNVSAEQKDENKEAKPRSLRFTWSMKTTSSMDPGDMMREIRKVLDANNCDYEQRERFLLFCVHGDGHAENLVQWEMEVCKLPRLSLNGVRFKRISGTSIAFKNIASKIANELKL

MARK4 (human) = MARK4 (human) (UniProt Q96L34)
MKNK2 (human) = MKNK2 (human) (UniProt Q9HBH9)
Sequence of MKNK2 (human) (Q9HBH9 whole entry, looked up): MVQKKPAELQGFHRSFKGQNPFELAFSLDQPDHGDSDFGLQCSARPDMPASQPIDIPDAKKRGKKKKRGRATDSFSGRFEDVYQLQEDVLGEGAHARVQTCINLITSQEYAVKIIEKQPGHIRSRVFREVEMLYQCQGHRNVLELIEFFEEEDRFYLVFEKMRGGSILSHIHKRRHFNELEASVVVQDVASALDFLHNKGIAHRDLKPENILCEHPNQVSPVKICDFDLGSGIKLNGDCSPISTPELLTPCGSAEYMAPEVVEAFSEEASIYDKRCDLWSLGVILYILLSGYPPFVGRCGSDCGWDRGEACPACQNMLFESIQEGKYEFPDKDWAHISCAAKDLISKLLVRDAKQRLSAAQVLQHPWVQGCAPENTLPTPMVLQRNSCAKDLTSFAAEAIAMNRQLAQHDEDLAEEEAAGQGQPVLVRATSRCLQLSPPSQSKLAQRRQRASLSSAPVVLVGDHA

MLTK (human) = MLTK (human) (UniProt Q9NYL2)
MYLK2 (human) = MYLK2 (human) (UniProt Q9H1R3)
NLK (human) = NLK (human) (UniProt Q9UBE8)
NTRK2 (human) = NTRK2 (human) (UniProt Q16620)
PHKG1 (human) = PHKG1 (human) (UniProt Q16816)
PHKG2 (human) = PHKG2 (human) (UniProt P15735)
PIM1 (human) = PIM1 (human) (UniProt P11309)
PLK2 (human) = PLK2 (human) (UniProt Q9NYY3)
Sequence of PLK2 (human) (Q9NYY3 whole entry, looked up): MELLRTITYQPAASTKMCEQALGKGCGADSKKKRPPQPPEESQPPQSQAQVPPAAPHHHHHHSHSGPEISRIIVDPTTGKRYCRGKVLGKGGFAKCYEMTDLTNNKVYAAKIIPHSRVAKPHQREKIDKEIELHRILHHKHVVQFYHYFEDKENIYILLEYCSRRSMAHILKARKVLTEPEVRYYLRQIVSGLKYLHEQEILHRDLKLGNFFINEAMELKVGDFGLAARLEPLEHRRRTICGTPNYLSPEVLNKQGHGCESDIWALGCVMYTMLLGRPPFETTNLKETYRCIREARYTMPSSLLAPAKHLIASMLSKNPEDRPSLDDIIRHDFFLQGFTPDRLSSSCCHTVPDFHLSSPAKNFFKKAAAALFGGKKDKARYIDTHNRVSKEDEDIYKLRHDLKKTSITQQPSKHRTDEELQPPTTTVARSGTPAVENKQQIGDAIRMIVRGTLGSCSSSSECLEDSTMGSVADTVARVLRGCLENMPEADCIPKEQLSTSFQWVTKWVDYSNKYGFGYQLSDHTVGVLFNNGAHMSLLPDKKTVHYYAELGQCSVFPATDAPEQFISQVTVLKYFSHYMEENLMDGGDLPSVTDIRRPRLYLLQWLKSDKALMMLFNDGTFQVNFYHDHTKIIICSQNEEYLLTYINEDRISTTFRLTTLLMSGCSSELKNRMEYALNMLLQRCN

PRKCA (human) = PRKCA (human) (UniProt P17252)
PRKCB1 (human) = PRKCB1 (human) (UniProt P05771)
Sequence of PRKCB1 (human) (P05771 whole entry, looked up): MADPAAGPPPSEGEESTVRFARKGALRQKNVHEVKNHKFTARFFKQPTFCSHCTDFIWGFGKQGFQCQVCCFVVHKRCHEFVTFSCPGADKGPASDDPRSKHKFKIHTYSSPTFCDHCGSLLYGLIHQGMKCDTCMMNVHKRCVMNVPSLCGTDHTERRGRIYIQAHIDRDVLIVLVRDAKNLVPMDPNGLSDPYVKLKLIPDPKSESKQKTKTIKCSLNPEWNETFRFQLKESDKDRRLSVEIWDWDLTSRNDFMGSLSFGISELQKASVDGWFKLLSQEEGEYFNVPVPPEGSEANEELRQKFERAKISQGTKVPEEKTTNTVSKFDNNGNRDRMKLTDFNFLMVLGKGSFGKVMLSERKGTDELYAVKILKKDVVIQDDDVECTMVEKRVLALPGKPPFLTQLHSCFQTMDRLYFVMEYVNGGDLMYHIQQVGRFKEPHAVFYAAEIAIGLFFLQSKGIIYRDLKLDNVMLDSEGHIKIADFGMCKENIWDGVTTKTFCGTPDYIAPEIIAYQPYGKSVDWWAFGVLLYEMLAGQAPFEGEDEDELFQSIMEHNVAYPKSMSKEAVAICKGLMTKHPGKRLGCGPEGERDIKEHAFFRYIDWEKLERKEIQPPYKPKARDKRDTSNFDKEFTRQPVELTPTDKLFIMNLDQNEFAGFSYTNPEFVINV

PRKCB2 (human) = PRKCB2 (human) (UniProt P05771)
PRKD2 (human) = PRKD2 (human) (UniProt Q9BZL6)
RPS6KA2 KD1 KD2 (human) = RPS6KA2 KD1 KD2 (human) (UniProt Q15349)
RPS6KA3 KD1 KD2 (human) = RPS6KA3 KD1 KD2 (human) (UniProt P51812)
STK17A (human) = STK17A (human) (UniProt Q9UEE5)
STK24 (human) = STK24 (human) (UniProt Q9Y6E0)
Sequence of STK24 (human) (Q9Y6E0 whole entry, looked up): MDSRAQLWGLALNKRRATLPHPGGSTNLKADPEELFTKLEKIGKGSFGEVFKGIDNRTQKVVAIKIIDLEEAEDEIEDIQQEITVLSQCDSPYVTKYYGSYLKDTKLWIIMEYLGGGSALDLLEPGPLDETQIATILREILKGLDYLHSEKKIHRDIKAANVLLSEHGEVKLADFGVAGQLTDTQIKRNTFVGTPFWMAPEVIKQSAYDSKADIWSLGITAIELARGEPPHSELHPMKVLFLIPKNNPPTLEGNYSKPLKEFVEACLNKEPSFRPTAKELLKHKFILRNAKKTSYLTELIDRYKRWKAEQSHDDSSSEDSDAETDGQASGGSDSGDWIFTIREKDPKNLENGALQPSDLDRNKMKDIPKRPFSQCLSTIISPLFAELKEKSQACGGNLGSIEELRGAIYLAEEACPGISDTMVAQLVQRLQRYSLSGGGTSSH

STK4 (human) = STK4 (human) (UniProt Q13043)
TAOK2 (human) = TAOK2 (human) (UniProt Q9UL54)
TNK2 (human) = TNK2 (human) (UniProt Q07912)
VRK1 (human) = VRK1 (human) (UniProt Q99986)
WEE1 (human) = WEE1 (human) (UniProt P30291)
YES1 (human) = YES1 (human) (UniProt P07947)
Sequence of YES1 (human) (P07947 whole entry, looked up): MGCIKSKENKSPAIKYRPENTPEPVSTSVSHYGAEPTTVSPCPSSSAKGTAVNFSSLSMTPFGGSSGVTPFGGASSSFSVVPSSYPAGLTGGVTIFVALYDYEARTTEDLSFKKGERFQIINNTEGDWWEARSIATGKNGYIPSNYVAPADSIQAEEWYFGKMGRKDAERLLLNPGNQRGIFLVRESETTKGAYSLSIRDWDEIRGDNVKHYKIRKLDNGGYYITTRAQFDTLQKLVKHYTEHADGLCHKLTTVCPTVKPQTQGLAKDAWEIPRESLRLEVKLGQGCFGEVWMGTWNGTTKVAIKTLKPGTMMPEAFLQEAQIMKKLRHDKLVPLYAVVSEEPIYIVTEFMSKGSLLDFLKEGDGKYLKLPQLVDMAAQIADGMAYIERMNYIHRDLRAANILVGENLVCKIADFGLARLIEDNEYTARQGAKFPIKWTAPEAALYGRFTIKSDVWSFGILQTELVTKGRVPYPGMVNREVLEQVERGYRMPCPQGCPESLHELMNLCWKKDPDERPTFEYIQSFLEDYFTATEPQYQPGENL

ZAP70 (human) = ZAP70 (human) (UniProt P43403)

- residual activity (ABL2 (human)): 88%
- residual activity (AKT3 (human)): 94%
- residual activity (CAMK1 (human)): 54%
- residual activity (CAMK2G (human)): 99.5%
- residual activity (CDC42BPA (human)): 100%
- residual activity (CDK6 CCND1 (human)): 106%
- residual activity (CDK6 CCND3 (human)): 102%
- residual activity (CDK9 CCNT1 (human)): 98%
- residual activity (DYRK1A (human)): 95%
- residual activity (DYRK4 (human)): 98.5%
- residual activity (EPHA8 (human)): 89%
- residual activity (ERBB2 (human)): 100%
- residual activity (FLT1 (human)): 97.5%
- residual activity (FLT4 (human)): 82.5%
- residual activity (FRK (human)): 97%
- residual activity (IGF1R (human)): 96.5%
- residual activity (LTK (human)): 102%
- residual activity (MAP3K3 (human)): 107%
- residual activity (MARK3 (human)): 110%
- residual activity (MARK4 (human)): 83%
- residual activity (MKNK2 (human)): 98%
- residual activity (MLTK (human)): 96%
- residual activity (MYLK2 (human)): 96.5%
- residual activity (NLK (human)): 95%
- residual activity (NTRK2 (human)): 99%
- residual activity (PHKG1 (human)): 98%
- residual activity (PHKG2 (human)): 93.5%
- residual activity (PIM1 (human)): 102%
- residual activity (PLK2 (human)): 93.5%
- residual activity (PRKCA (human)): 106%
- residual activity (PRKCB1 (human)): 102%
- residual activity (PRKCB2 (human)): 94%
- residual activity (PRKD2 (human)): 98%
- residual activity (RPS6KA2 KD1 KD2 (human)): 92%
- residual activity (RPS6KA3 KD1 KD2 (human)): 90.5%
- residual activity (STK17A (human)): 96.5%
- residual activity (STK24 (human)): 82%
- residual activity (STK4 (human)): 97%
- residual activity (TAOK2 (human)): 103%
- residual activity (TNK2 (human)): 93.5%
- residual activity (VRK1 (human)): 101%
- residual activity (WEE1 (human)): 100%
- residual activity (YES1 (human)): 78.5%
- residual activity (ZAP70 (human)): 97.5%
Compound: CC[C@H](C)n1cc(C)c2c(C(=O)NCc3c(C)cc(C)[nH]c3=O)cc(-c3ccc(N4CCNCC4)nc3)cc21
